Results reported in patent publication US6512000B1, “Aminocarbonyl-substituted benzimidazoles having tryptase-inhibitory activity” (Boehringer Ingelheim Pharma KG, priority 1999, dated 2003).
Where a name gives a salt, the structure may show the parent alone.

Molecular target: T1, rh beta tryptase (Homo sapiens, UniProt P20231)
T1 construct: purchased Promega
Assay: Tryptase inhibition test (cleavage of N-p-tosyl-Gly-Pro-Lys-para-nitroaniline, p-nitroaniline measured at 405 nm)
Format: biochemical
Details: pH 7.4, 37° C.; for inhibition at 10 µM / % Inhibition (10 μM): inhibition of rh beta tryptase at 10 μM test substance, substrate N-p-tosyl-Gly-Pro-Lys-para-nitroaniline 0.6 mM, 5 minutes; for IC50: concentration at which 50% of the tryptase enzyme activity is inhibited, substrate 0.6 mM
Summary of the method: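 Screening at 10 μM gives percent inhibition, with IC50 derived for compounds above 70% inhibition. Enzyme: rh beta tryptase, 0.91 U/ml, pH 7.4 Tris HCl (100 mM), 5 mM Ca, 100 mg/ml heparin. After 5 min compound pre-incubation, 0.6 mM pNA substrate cleaved 5 min at 37 °C, monitored at 405 nm.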

T1 sequence (P20231 31-275): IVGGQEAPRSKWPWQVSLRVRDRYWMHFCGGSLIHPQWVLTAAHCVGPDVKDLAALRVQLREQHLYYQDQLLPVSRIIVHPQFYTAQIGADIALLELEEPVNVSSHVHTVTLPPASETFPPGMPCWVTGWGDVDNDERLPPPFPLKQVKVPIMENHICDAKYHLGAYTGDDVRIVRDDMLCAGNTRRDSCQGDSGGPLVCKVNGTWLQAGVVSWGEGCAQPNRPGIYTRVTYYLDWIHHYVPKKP

| inhibition at 10 µM [%] | IC50 [nM] | % Inhibition (10 μM) [%] | Compound |
| --- | --- | --- | --- |
| – | – | 52 | N=C(N)c1ccc(CCc2nc3cc(C(=O)N(CCN)Cc4cccc(C(F)(F)F)c4)ccc3n2CC2CC2)cc1 [Example 394, 2-[2-(4-amidinophenyl)ethyl]-1-cyclopropylmethyl-benzimidazol-5-yl-carboxyiic acid-N-(2-aminoethyl)-N-(3-trifluoromethylbenzyl)-amide] |
| 66 | – | – | N=C(N)c1ccc(CCc2nc3cc(C(=O)N(CCCc4ccccc4)Cc4ccc(CN)cc4)ccc3n2CCCNC(=O)Cc2ccccc2)cc1 [Example 168, 2-[2-(4-amidinophenyl)ethyl]-1-[3-(benzylcarbonylamino)-propyl]-benzimidazol-5-yl-carboxylic acid-N-[4-(amino-methyl)-benzyl]-N-(3-phenylpropyl)-amide] |
| 68 | – | – | N=C(N)c1ccc(CCc2nc3cc(C(=O)N(CCCc4ccccc4)Cc4ccc(CN)cc4)ccc3n2CCCN2CCOCC2)cc1 [Example 177, 2-[2-(4-amidinophenyl)ethyl]-1-[3-(morpholin-4-yl)-propyl]-benzimidazol-5-yl-carboxylic acid-N-[4-(amino-methyl)-benzyl]-N-(3-phenylpropyl)-amide] |
| 56 | – | – | N=C(N)c1ccc(CCc2nc3cc(C(=O)N(Cc4ccccc4)Cc4ccc(CN)cc4)ccc3n2CCCN2CCOCC2)cc1 [Example 113, 2-[2-(4-amidinophenyl)ethyl]-1-[3-(morpholin-4-yl)-propyl]-benzimidazol-5-yl-carboxylic acid-N-[4-(amino-methyl)-benzyl]-N-benzyl-amide] |
| 65 | – | – | N=C(N)c1ccc(CCc2nc3cc(C(=O)N(Cc4ccc(CN)cc4)CC4CCCCC4)ccc3n2CCCNC(=O)Cc2ccccc2)cc1 [Example 152, 2-[2-(4-amidinophenyl)ethyl]-1-[3-(benzylcarbonylamino)-propyl]-benzimidazol-5-yl-carboxylic acid-N-[4-(amino-methyl)-benzyl]-N-cyclohexylmethyl-amide] |
| 51 | – | – | N=C(N)c1ccc(CCc2nc3cc(C(=O)N(CCCc4ccccc4)Cc4ccc(CN)cc4)ccc3n2CC2CCCO2)cc1 (stereo not drawn) [Example 178, 2-[2-(4-amidinophenyl)ethyl]-1-(tetrahydrofuran-2-yl-methyl)-benzimidazol-5-yl-carboxylic acid-N-[4-(amino-methyl)-benzyl]-N-(3-phenylpropyl)-amide] |
| 75 | 275 | – | CCOCCCn1c(CCc2ccc(C(=N)N)cc2)nc2cc(C(=O)N(CCN)CC3CCCCC3)ccc21 [Example 342, 2-[2-(4-amidinophenyl)ethyl]-1-(3-ethoxypropyl)-benzimidazol-5-yl-carboxylic acid-N-(2-aminoethyl)-N-cyclohexylmethyl-amide] |
| 54 | 335 | – | CCOCCCn1c(CCc2ccc(C(=N)N)cc2)nc2cc(C(=O)N(Cc3ccc(CN)cc3)Cc3ccccc3F)ccc21 [Example 214, 2-[2-(4-amidinophenyl)ethyl]-1-(3-ethoxypropyl)-benzimidazol-5-yl-carboxylic acid-N-[4-(amino-methyl)-benzyl]-N-(2-fluorobenzyl)-amide] |
| 58 | – | – | N=C(N)c1ccc(CCc2nc3cc(C(=O)N(Cc4ccccc4)Cc4ccc(CN)cc4)ccc3n2CC2CCCO2)cc1 (stereo not drawn) [Example 114, 2-[2-(4-amidinophenyl)ethyl]-1-(tetrahydrofuran-2-yl-methyl)-benzimidazol-5-yl-carboxylic acid-N-[4-(amino-methyl)-benzyl]-N-benzyl-amide] |

The remaining lines, values behind:

| Compound | inhibition at 10 µM [%] | IC50 [nM] | % Inhibition (10 μM) [%] |
| --- | --- | --- | --- |
| COc1cccc(CN(Cc2ccc(CN)cc2)C(=O)c2ccc3c(c2)nc(CCc2ccc(C(=N)N)cc2)n3CC2CC2)c1 [Example 74, 2-[2-(4-amidinophenyl)ethyl]-1-cyclopropylmethyl-benzimidazol-5-yl-carboxylic acid-N-[4-(amino-methyl)-benzyl]-N-(3-methoxybenzyl)-amide] | 66 | – | – |
| 2-[2-(4-amidinophenyl)ethyl]-1-(3-ethoxypropyl)-benzimidazol-5-yl-carboxylic acid-N-(2-aminoethyl)-N-(3-pyridyl)-amide [Example 326] | – | 288 | 51 |
| N=C(N)c1ccc(CCc2nc3cc(C(=O)N(CCN)Cc4ccc(Cl)cc4)ccc3n2CC2CCCO2)cc1 (stereo not drawn) [Example 386, 2-[2-(4-amidinophenyl)ethyl]-1-(tetrahydrofuran-2-yl-methyl)-benzimidazol-5-yl-carboxylic acid-N-(2-aminoethyl)-N-(4-chlorbenzyl)-amide] | – | – | 55 |
| COc1cccc(CN(Cc2ccc(CN)cc2)C(=O)c2ccc3c(c2)nc(CCc2ccc(C(=N)N)cc2)n3CCCN2CCOCC2)c1 [Example 81, 2-[2-(4-amidinophenyl)ethyl]-1-[3-(morpholin-4-yl)-propyl]-benzimidazol-5-yl-carboxylic acid-N-[4-(amino-methyl)-benzyl]-N-(3-methoxybenzyl)-amide] | 69 | – | – |
| CN(Cc1ccc(C(=N)N)cc1)C(=O)c1ccc2c(c1)nc(CCc1ccc(C(=N)N)cc1)n2C [Example 4, 2-[2-(4-Amidinophenyl)-ethyl]-1-methyl-benzimidazol-5-yl-carboxylic Acid-N-(4-amidino-benzyl)-N-methyl-amide-trihydrochloride] | – | 81 | – |
| CCCCN(CCCC)CCCn1c(CCc2ccc(C(=N)N)cc2)nc2cc(C(=O)N(CCCC)Cc3ccc(CN)cc3)ccc21 [Example 87, 2-[2-(4-amidinophenyl)ethyl]-1-(3-di-n-butylaminopropyl)-benzimidazol-5-yl-carboxylic acid-N-[4-(amino-methyl)-benzyl]-N-n-butyl-amide] | 59 | – | – |
| 2-[2-(4-amidinophenyl)ethyl]-1-(tetrahydrofuran-2-yl-methyl)-benzimidazol-5-yl-carboxylic acid-N-(2-aminoethyl)-N-(2-pyridyl)-amide [Example 322] | – | – | 51 |
| 2-[2-(4-amidinophenyl)ethyl]-1-{3-[4-(2-methylphenyl)-piperazin-1-yl]-propyl}-benzimidazol-5-yl-carboxylic acid-N-[4-(amino-methyl)-benzyl]-N-(3-pyridyl)-amide [Example 144] | – | – | 54 |
| Cn1c(CCc2ccc(C(=N)N)cc2)nc2cc(C(=O)N3CCN(c4ccccn4)CC3)ccc21 [Example 52, 2-[2-(4-Amidinophenyl)-ethyl]-1-methyl-benzimidazol-5-yl-carboxylic Acid-[N′-(2-pyridyl)-piperazide]] | – | 231 | – |
| 2-[2-(4-amidinophenyl)ethyl]-1-[3-(benzylcarbonylamino)-propyl]-benzimidazol-5-yl-carboxylic acid-N-(2-aminoethyl)-N-(2-pyridyl)-amide [Example 312] | – | – | 55 |
| Cn1c(CCc2ccc(C(=N)N)cc2)nc2cc(C(=O)N(CCC(=N)N)Cc3ccccc3)ccc21 [Example 9, 2-[2-(4-Amidinophenyl)-ethyl]-1-methyl-benzimidazol-5-yl-carboxylic Acid-N-(2-amidinoethyl)-N-benzyl-amide-dihydrochloride] | – | 140 | – |
| COc1cccc(CN(Cc2ccc(CN)cc2)C(=O)c2ccc3c(c2)nc(CCc2ccc(C(=N)N)cc2)n3CCc2ccc(Cl)cc2)c1 [Example 76, 2-[2-(4-amidinophenyl)ethyl]-1-[2-(4-chlorophenyl)ethyl]-benzimidazol-5-yl-carboxylic acid-N-[4-(amino-methyl)-benzyl]-N-(3-methoxybenzyl)-amide] | 58 | – | – |
